# Reference: US5914244A, “UL97 fusion proteins and methods of use” (priority 1997, dated 1999)
# Where two headings read alike, the source gives them in different places.
# Tests used:
# [1] = biological target: T1, GST-UL97 fusion protein (glutathione-S-transferase fused to wild-type UL97 protein kinase of CMV strain AD169) (Human cytomegalovirus, UniProt P16788); test: biochemical; format: biochemical; settings: for inhibition at 10 µM: read-out: reduction / inhibition of histone phosphorylation
# T1 construct: degradation products of the full length GST-UL97 fusion proteins; made in house; host or cells: Spodoptera frugiperda Sf21 cells infected with recombinant baculovirus BVGSTUL97
# Method: (§1) Protein samples were added to 20 μl of reaction buffer containing 50 mM Tris HCl pH 9.0, 10 mM MgCl2, 5 μM ATP, 2 mM DTT, 1 M NaCl and 5 μCi γ^32 P-ATP (unless otherwise stated). After incubation at 37° C. for 30 min (unless otherwise stated), the reactions were terminated by addition of 20 μl of 2× Laemmli sample buffer to the sample and boiling for 3 min. Phosphorylated proteins were resolved by electrophoresis on 10% SDS-PAGE gels and detected by autoradiography. In order to quantitate the level of phosphorylation, the region of the gel corresponding to the labelled protein was excised and the Cerenkov radioactivity was counted. For assay of extracts of insect cells infected with BVUL97 and related recombinant viruses, 2×10^7 infected or mock-infected cells were broken by sonication in 1 ml of ice-cold lysis buffer B (50 mM Tris-HCl pH 7.6, 100 mM NaCl, 5 mM MgCl2, 0.1% NP-40, 10% glycerol, […] and 1 mM PMSF). Insoluble material was removed by centrifugation at 12,000×g for 5 minutes.
# Exogenous UL97 substrates identified in the substrate assay are used to detect agents which affect UL97 protein kinase activity. […] In a typical reaction, 0.8 μg/μl histone was dissolved in 20 μl reaction buffer, and the reaction was initiated by addition of 1.9 ng/μl GST-UL97. Following a 30 min incubation at 37° C., the reaction was terminated by the addition of 2× Laemmli sample buffer to the sample and boiling for 3 min. Proteins were separated on 15% SDS-PAGE gels, and phosphorylation was detected by autoradiography.
# In this assay, an agent which may be an inhibitor or an activator of UL97 is added to the phosphorylation reaction, and the reaction is allowed to proceed. The amount of phosphorylation is then measured, to see if the agent increases or decreases UL97-mediated histone phosphorylation.
# [2] = biological target: T1, GST-UL97 fusion protein (glutathione-S-transferase fused to wild-type UL97 protein kinase of CMV strain AD169); test: GST-UL97 autophosphorylation protein kinase assay (Km by Lineweaver-Burk plot); format: biochemical
# Method: as §1
# The Michaelis or apparent dissociation constant (Km) for GST-UL97 was determined using a Lineweaver-Burk plot. Kinase reactions (enzyme concentration, 4.7 ng/μl) were carried out in 200 μl standard assay buffer. […] Radiolabelled GST-UL97 was separated on 10% SDS-PAGE gels and quantified by Cerenkov count. […]
# T1 sequence (P16788 whole entry, the tested form may be a part): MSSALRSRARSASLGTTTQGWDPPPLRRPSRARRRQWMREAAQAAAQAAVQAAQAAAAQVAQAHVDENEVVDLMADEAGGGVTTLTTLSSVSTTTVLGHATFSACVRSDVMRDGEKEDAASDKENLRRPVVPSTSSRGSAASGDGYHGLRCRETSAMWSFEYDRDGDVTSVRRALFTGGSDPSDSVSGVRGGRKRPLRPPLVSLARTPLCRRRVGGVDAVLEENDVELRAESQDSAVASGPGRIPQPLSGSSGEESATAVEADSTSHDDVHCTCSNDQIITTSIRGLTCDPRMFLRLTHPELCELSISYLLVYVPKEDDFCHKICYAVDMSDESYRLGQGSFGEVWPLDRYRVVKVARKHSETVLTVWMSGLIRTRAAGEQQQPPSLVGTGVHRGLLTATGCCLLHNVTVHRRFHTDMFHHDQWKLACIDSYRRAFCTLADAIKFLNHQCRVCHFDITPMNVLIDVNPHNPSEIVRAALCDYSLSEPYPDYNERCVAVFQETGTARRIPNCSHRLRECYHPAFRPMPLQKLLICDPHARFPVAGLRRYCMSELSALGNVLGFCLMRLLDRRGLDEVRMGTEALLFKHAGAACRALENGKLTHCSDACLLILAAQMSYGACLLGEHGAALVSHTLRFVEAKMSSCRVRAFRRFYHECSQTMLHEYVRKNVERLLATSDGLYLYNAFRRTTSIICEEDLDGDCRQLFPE
smiles,measurement,setting,value
Nc1ncnc2c1ncn2[C@@H]1O[C@H](COP(=O)(O)OP(=O)(O)O)[C@@H](O)[C@H]1O [ADP],activity at 5 µM,"[1]; addition at 5 μM, histone phosphorylation, none = 100",166%
same,effect on UL97 protein kinase activity (in words),"[1]; histone phosphorylation, ADP at 5 μM",stimulatory effect
Nc1ncnc2c1ncn2[C@@H]1O[C@H](COP(=O)(O)OP(=O)(O)OP(=O)(O)O)[C@@H](O)[C@H]1O [ATP],Km,"[2]; optimal divalent cation concentration, enzyme 4.7 ng/μl, read-out: Km determined for ATP as substrate",2 ± 0.5 µM
Nc1nc2c(ncn2[C@@H]2O[C@H](COP(=O)(O)OP(=O)(O)OP(=O)(O)O)[C@@H](O)[C@H]2O)c(=O)[nH]1 [GTP],Km,"[2]; 10 mM Mg2+, read-out: Km for GTP as a phosphate donor",4 µM
Nc1nc2c(ncn2[C@@H]2O[C@H](CO)[C@@H](O)[C@H]2O)c(=O)[nH]1 [Guanosine],activity at 10 µM,[1],125%
same,effect on GST-UL97 kinase activity (in words),"[1]; histone phosphorylation, cAMP 5 μM, guanosine 10 μM (Table 2)",Neither cAMP nor guanosine showed an inhibitory effect
O=c1c(O)c(-c2ccc(O)c(O)c2)oc2cc(O)cc(O)c12 [Quercetin],activity at 10 µM,"[1]; addition at 10 μM, histone phosphorylation, none = 100, read-out: Activity (%)",28%
same,inhibition at 10 µM,[1]; agent at 10 μM,> 70%
N#CC(C#N)=Cc1ccc(O)c(O)c1 [Tyrphostin 23],activity at 10 µM,[1],27%
same,inhibition at 10 µM,[1],73%
NCCCNCCCCNCCCN [spermine],activity at 100 µM,[1],163%
same,effect on UL97-mediated phosphorylation of histone (in words),[1]; 0.1 mM spermine,enhanced
